The nature of series [1]: Permeability from apical to basolateral side of human Caco-2 cells. It counts as ADME, cell-based. The note with it: read-out: permeability.
Series [2] is described as follows: AUC in Sprague-Dawley rat at 10 mg/kg, po. The class given is ADME, organism-based. The arrangement: dose 10 mg/kg, route oral. Particulars: plasma.
For the next series, the target named is T1, Interstitial collagenase (Homo sapiens, UniProt P03956).
T1 sequence (P03956 whole entry): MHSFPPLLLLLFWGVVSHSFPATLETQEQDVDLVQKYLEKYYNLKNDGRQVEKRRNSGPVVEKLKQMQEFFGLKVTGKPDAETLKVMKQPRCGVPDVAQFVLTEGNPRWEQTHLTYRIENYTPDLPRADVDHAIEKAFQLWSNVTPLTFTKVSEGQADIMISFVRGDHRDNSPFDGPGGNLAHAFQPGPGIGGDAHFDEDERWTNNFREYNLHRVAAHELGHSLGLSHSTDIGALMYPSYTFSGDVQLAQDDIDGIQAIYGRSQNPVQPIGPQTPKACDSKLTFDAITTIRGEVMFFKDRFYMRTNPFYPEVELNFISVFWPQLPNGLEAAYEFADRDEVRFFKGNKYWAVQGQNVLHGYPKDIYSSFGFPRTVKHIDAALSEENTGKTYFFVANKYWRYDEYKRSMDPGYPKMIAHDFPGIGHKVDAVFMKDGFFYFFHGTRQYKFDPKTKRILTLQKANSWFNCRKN

Series [3] deals with 72 kDa type IV collagenase (Homo sapiens, UniProt P08253).
The target of another series is Stromelysin-1 (Homo sapiens, UniProt P08254).
The target of another series is T2, Matrilysin (Homo sapiens, UniProt P09237).
T2 sequence (P09237 whole entry): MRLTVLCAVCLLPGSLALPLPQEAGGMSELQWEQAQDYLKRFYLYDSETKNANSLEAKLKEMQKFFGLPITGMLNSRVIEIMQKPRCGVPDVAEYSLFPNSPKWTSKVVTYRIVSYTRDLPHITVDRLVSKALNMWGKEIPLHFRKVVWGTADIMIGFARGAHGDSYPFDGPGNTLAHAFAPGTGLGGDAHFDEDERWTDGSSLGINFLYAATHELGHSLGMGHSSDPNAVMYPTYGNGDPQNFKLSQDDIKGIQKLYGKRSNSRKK

Series [4] addresses Matrix metalloproteinase-14 (Homo sapiens, UniProt P50281).
Series [5] deals with T3, Disintegrin and metalloproteinase domain-containing protein 10 (Homo sapiens, UniProt O14672).
T3 sequence (O14672 whole entry): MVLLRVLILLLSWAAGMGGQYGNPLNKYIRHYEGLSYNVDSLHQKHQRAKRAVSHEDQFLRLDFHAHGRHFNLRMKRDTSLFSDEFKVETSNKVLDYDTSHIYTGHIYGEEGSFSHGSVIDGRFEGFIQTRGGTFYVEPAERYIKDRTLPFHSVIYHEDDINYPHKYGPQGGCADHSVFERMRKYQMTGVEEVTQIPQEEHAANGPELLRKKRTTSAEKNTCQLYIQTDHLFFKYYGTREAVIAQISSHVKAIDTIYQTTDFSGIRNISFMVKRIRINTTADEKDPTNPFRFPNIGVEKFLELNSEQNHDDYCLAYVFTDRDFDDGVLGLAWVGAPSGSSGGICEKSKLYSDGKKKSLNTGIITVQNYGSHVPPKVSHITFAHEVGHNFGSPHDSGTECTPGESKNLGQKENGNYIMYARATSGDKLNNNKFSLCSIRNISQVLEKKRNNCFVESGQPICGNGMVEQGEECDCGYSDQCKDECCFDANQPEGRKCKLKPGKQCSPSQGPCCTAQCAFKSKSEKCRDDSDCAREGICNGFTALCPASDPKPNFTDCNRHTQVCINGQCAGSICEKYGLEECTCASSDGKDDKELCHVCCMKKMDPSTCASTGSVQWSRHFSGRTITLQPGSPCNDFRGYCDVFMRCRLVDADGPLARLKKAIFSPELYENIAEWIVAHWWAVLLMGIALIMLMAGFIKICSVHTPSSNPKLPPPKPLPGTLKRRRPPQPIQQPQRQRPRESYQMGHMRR

Each structure is given as a SMILES string.

Chain of 72 kDa type IV collagenase (P08253 whole entry): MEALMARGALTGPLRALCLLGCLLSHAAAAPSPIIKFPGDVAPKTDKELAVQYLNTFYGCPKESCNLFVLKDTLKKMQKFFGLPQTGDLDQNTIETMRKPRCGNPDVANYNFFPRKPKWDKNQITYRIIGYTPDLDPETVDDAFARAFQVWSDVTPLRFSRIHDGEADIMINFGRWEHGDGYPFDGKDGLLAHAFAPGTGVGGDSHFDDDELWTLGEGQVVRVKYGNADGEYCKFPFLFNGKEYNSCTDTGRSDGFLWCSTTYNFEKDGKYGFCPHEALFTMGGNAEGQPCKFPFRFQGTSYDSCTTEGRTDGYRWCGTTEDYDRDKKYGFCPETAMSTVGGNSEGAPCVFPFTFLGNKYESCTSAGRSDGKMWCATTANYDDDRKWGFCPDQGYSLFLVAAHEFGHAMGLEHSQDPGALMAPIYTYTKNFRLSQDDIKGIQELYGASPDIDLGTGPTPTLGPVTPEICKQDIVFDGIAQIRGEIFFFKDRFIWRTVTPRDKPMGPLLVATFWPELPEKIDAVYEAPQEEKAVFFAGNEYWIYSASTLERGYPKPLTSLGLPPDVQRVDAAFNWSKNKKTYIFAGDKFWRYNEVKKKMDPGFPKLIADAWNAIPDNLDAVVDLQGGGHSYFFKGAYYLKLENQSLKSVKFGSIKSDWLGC
Chain of Stromelysin-1 (P08254 whole entry): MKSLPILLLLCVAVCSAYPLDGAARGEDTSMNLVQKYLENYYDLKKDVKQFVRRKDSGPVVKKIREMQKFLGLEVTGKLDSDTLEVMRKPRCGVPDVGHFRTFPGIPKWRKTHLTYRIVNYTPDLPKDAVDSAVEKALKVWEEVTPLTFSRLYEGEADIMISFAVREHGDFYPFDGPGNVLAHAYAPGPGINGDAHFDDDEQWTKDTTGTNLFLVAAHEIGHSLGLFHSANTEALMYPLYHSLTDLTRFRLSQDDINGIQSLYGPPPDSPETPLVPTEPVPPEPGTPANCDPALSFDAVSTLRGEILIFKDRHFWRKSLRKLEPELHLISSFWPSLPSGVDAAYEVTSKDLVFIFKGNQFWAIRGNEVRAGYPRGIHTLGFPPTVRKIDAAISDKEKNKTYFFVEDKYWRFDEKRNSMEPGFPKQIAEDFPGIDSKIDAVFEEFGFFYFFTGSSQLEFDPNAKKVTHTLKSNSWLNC

In the case of `NC(=O)[C@@]1(Cc2ccc(OCc3cc(-c4ccccc4)nc4ccccc34)c(F)c2)C[C@@H]1C(=O)NO`, in series [1], the Papp A→B is 0.3 ×10⁻⁶ cm/s.

For the compound `N#C[C@@]1(Cc2ccc(OCc3cc(-c4ccccc4)nc4ccccc34)cc2)C[C@@H]1C(=O)NO`, the AUC in series [2] was greater than 2.5 µM·h.

Regarding `Cc1cc(COc2ccc(C[C@]3(C(N)=O)C[C@@H]3C(=O)NO)cc2)c2ccccc2n1`, the inhibitory constant (Ki) is greater than 10 mM at Interstitial collagenase; 1 mM in series [3]; 0.058 mM on Stromelysin-1; 0.11 mM on Matrilysin; 2.4 mM in series [4]; greater than 10 mM in series [5].

`O=C(NO)[C@H]1C[C@]1(Cc1ccc(OCc2cc(-c3ccccc3)nc3ccccc23)cc1)C(=O)N1CCC[C@H]1CO`: the Ki (on Interstitial collagenase; in series [3]; at Stromelysin-1; at Matrilysin; in series [4]; in series [5]) was greater than 10 mM throughout.
